Results on nine molecules are retold here after paper PMC8065335, “An integrative drug repositioning framework discovered a potential therapeutic agent targeting COVID-19” (Signal Transduction and Targeted Therapy, 2021).

Structures are written as SMILES. Where two headings read alike, the source gives them in different places.

Data set [1] has as its system SARS-CoV-2. The data set is described as follows: in vitro anti-SARS-CoV-2 virus infection assay in Vero E6 cells, viral yield in supernatant by qRT-PCR. The class given is cell-based.
Data set [2] concerns SARS-CoV-2. The data set is described as follows: inhibitor combination assay in Vero E6 cells. The class given is cell-based. How it is done:
The cytotoxicity of the tested drugs on Vero E6 cells was determined by the CCK8 assays (Beyotime, China). At 48 h post addition of the tested drugs, 20 μL CCK8 was added to each well and incubated at 37 °C for 1 h. Then optical density was measured at 450 nm. The 50% cytotoxic concentration (CC50) values were calculated using GraphPad Prism 5 (GraphPad Software, USA). Vero E6 cells were seeded into 96-well plates with a density of 5 × 10^4 cells/well for incubation in DMEM medium supplemented with 10% FBS for 16 h in an incubator with 5% CO2 at 37 °C, for cells to reach 80% confluent. Then, cell culture medium of each well was removed, and PBS was used to wash the cells once, before evaluating the antiviral efficacy of the tested drugs. Four duplicated wells were made for each dose of drugs, and the cells were pretreated with different doses of antiviral drugs diluted by the cell maintenance solution (50 μL per well) for 1 h. For the virus control and cell control wells, cell medium containing DMSO or only medium of 50 μL per well was added. Next, pretreated or untreated cells in each well were infected with the virus with a multiplicity of infection (MOI) of 0.05 for 2 h. […] Then culture supernatant per well was harvested and inactivated at 56 °C for 30 min to further extract and quantify viral RNA. […]

Data set [3] concerns the target nucleocapsid (N) protein of SARS-CoV-2 (SARS-CoV-2-N) (Severe acute respiratory syndrome coronavirus 2, UniProt P0DTC9). Format: binding. The conditions noted are these: for Kd: read-out: dissociation constant (KD).
For data set [4], the system named is IL-6. As to the kind of experiment: LPS-induced IL-6 production in PBMCs (ELISA). The class given is cell-based, human. The method, then: (§1) Peripheral blood mononuclear cells (Allcells) were cultured at 37 °C at concentration 5% CO2 atmospheric on a 96-well plate in RPMI1640 cell growth medium (Gibico, Cat. 11875-093). For stimulation, PBMC cells were incubated with 1 μg/mL LPS (Sigma, Cat. L2880-25MG). To test whether CVL218 and olaparib can inhibit the production of IL-6, IL-10, IFN-γ, TNF-α, 1 μM and 3 μM concentrations of CVL218 or olaparib were added to cell culture medium for 6 and 24 h, respectively. The concentration of each cytokine was determined by ELISA using a commercial kit (BioLegend, USA).
Background: ELISA stands for enzyme-linked immunosorbent assay.

The subject of data set [5] is IL-10. As to the kind of experiment: LPS-induced IL-10 production in PBMCs (ELISA). The class given is cell-based, human. The following applies: for LPS-induced expression of IL-10: 3 μM. How it is done:
as §1

In data set [6] the test system is IFN-γ. As to the kind of experiment: LPS-induced IFN-γ production in PBMCs (ELISA). The class given is cell-based, human. The conditions noted are these: both 3 μM and 1 μM; 6 h and 24 h. How it is done:
as §1

For data set [7], the system named is TNF-α. The data set is described as follows: LPS-induced TNF-α production in PBMCs (ELISA). The class given is cell-based, human. The following applies: both 3 μM and 1 μM; 6 h and 24 h. The method, then: as §1
Data set [8] has as its system SARS-CoV-2. The data set is described as follows: indirect immunofluorescence / RT-PCR of virus nucleoprotein expression in infected Vero E6 cells. The class given is cell-based.
The nature of data set [9]: biodistribution (tissue distribution) study in rats. Format: in vivo, Sprague-Dawley rats. The conditions noted are these: 20 mg/kg oral, 180 min time point.
Data set [10] is described as follows: four-week toxicity and toxicokinetic study in rats. Format: in vivo, Sprague-Dawley rats. The following applies: for AUC0−24: dose not given. How it is done:
Sprague-Dawley rats were purchased from Shanghai Laboratory Animal Center, China. The animals were grouped and housed in wire cages with no more than six per cage, under good laboratory conditions (temperature 25 ± 2 °C; relative humidity 50 ± 20%) and with dark and light cycle (12 h/12 h). Only healthy animals were used for experimental purpose. The pharmacokinetics and biodistribution study in Sprague-Dawley rats was approved by Center for Drug Safety Evaluation and Research, Shanghai Institute of Materia Medica, Chinese Academy of Sciences. A total of 144 Sprague-Dawley rats with each sex were used for toxicity study. Animals were randomly separated into four groups (18/sex/group). CVL218 was administered at doses of 20, 40, 60, and 160 mg/kg. For all the groups, 20 rats (10/sex/group) were randomly selected and euthanized at day 28, and their sections of various tissues and organs were obtained and frozen. Ten (5/sex/group) animals were euthanized after a 28-day drug free period, and their sections of tissues and organs were obtained and frozen. Six (3/sex/group) were euthanized after the blood samples were obtained. For pharmacokinetic and toxicity evaluation, clinical symptoms, mortality and the animals’ body weight were examined. Serum (0.5 mL) was collected to analyze toxicokinetics at different timepoints post drug administration. The plasma concentration-time data were analyzed using a noncompartmental method (Phoenix, version 1.3, USA) to derive the pharmacokinetic parameters.

Data set [11] can be described thus: 28-day toxicity and toxicokinetic study in cynomolgus monkeys. The class given is in vivo. The conditions noted are these: for AUC0−24: dose not given. How it is done:
Healthy male and female cynomolgus monkeys aged 3–4 years were purchased from Guangdong Landau Biotechnology, China. The animals were maintained in accordance with the Guide for the Care and Use of Laboratory Animals.
Cynomolgus monkey (5/sex/group) were selected using a computerized randomization procedure, and administered CVL218 by nasogastric feeding at dose levels of 0 (control), 5, 20, 80 mg/kg. Individual dose volumes were adjusted weekly based on body weight of monkeys. The monkeys were observed twice daily for viability/mortality and for any change in behavior, reaction to treatment or ill-health. Electrocardiograms, intraocular pressure, rectal temperature and body weight were recorded. For all the groups, […] of the animals were randomly selected and euthanized at day 28. The remaining animals were euthanized after a 28-day drug free period. Blood samples were taken before and at 0.5, 1, 2, 4, 8, and 24 h post-dose on days 1 and 28 of the treatment period. Pharmacokinetic evaluation was performed using a noncompartmental method (Phoenix, version 1.3, USA) and pharmacokinetic parameters were calculated for individual monkeys.

Data set [12] in a line: Phase I clinical trial, ascending dose studies. Format: in vivo, human. The following applies: doses as high as 1000 mg QD and 500 mg BID; preliminary Phase I data.
The subject of data set [13] is Vero E6 cells. The conditions noted are these: CCK8, 48 h.
Details of data set [14]: method as in earlier work. The following applies: rats, 54 mg/kg oral; cited from earlier work.
Data set [15] has as its system SARS-CoV-2. As to the kind of experiment: time-of-addition assay (full-time, entry, post-entry) in Vero E6 cells. The conditions noted are these: Severe acute respiratory syndrome coronavirus 2, Vero C1008, 14 h. The class given is cell-based.
On the set-up of data set [16]: method as in https://www.ema.europa.eu/en/medicines/human/EPAR/rubraca. The conditions noted are these: ref https://www.ema.europa.eu/en/medicines/human/EPAR/rubraca; cited from earlier work.
Where [17] appears, read: rats, oral gavage once a day for 28 days.
Where [18] appears, read: monkeys, nasogastric, daily for 28 days.
Where [19] appears, read: Severe acute respiratory syndrome coronavirus 2, Vero C1008, read-out: % Inhibition of SARS-CoV-2 replication.

With `CNCc1ccc(-c2cc3cc(F)cc(C(N)=O)c3o2)cc1` [CVL218], the “% Inhibition of SARS-CoV-2 replication” value in data set [1] (3 μM, Vero E6, MOI 0.05, qRT-PCR, preliminary test) turned out to be 34.64%. The EC50 in [1] (Vero E6, MOI 0.05, 48 h, read-out: EC50 against SARS-CoV-2 replication) turned out to be 5.19 µM. For the same molecule, the “inhibition rate against SARS-CoV-2 replication” value in data set [2] (CVL218 alone at 3.5 μM) is given as 36%. In addition, the equilibrium dissociation constant (Kd) in [3] (SPR, immobilized SARS-CoV-2-N) was 3.1 µM. The “LPS-induced production of IL-6” value in data set [4] (3 μM, after both 6 h and 24 h incubation, p < 0.01) is listed as “significantly repressed”. For the same molecule, the “LPS-induced expression of IL-10” value in data set [5] (after 6 h) is “not downregulated”; in [5] (after 24 h, p < 0.001), “dramatically reduced”. Further, the “LPS-induced concentration of IFN-γ” value in data set [6] is given as “significant decrease”. The “LPS-induced concentration of TNF-α” value in data set [7] was “significant decrease”. Besides, the “cytopathic effect in the infected cells” value in data set [8] (25 μM) is listed as “no obvious cytopathic effect”. Also, in [8] (RT-PCR, 5, 15, 25 μM, 48 h post infection), the “expression level of N gene compared to DMSO” value was “Lower expression level”. Besides, the “virus nucleoprotein (NP) expression compared to DMSO treated cells” value in data set [8] (immunofluorescence microscopy, 5, 15, 25 μM, dose-response) was “significantly lower”. Also, the “lung concentration compared to that in plasma” value in data set [9] amounted to 188 fold. Also, the “AUC0−24” value in data set [10] (female rats, day 1) was determined as 7605 ng·h/mL; in [10] (female rats, day 28), 6657 ng·h/mL; in data set [10] (male rats, day 1) it was 9102 ng·h/mL; in data set [10] (male rats, day 28), 10253 ng·h/mL; in data set [11] (female monkeys, day 1) it was 19466 ng·h/mL; in data set [11] (female monkeys, day 28), 18774 ng·h/mL. Besides, the “AUC0−24” value in data set [11] (male monkeys, day 1) was found to be 16924 ng·h/mL; in data set [11] (male monkeys, day 28), 22912 ng·h/mL. For the same molecule, in data set [10] (rats, 20/60/160 mg/kg oral, 28 days + 28 days recovery), the “body weight versus control groups” value is reported as “no significant difference”. Besides, the “maximum tolerable dose (MTD)” value in [10] (setting [17]) turned out to be 160 mg/kg; in data set [11] (setting [18]) it was 80 mg/kg. Moreover, the entries for the “no-observed adverse effect level (NOAEL)” value in data set [10] (setting [17]) and in data set [11] (setting [18]) were 20 mg/kg and 5 mg/kg, respectively. The “signs of toxicity after 28-day treatment period” value in [10] (rats, repeated dose) is given as “no apparent sign of toxicity”. Moreover, the “accumulation after consecutive 28 days of drug administration” value in [11] (monkeys, 5, 20 or 80 mg/kg) is recorded as “not apparent”. The “increase of exposure (AUC0−24) with dose” value in data set [11] (monkeys, 5, 20 or 80 mg/kg) was “approximately dose proportional”. In addition, the body weight entry in [11] (monkeys, high-dose (80 mg/kg) group, reversed after 28-day recovery) is “slight decrease”. In addition, the “adverse events in human” value in data set [12] was “no Grade II and above adverse events”. In addition, the tolerability in human entry in [12] is “well tolerated”. In addition, in data set [13], the CC50 was found to be 90.6 µM.

As to `CCOC(=O)C1=C[C@@H](OC(CC)CC)[C@H](NC(C)=O)[C@@H](N)C1` [Oseltamivir], the inhibition at 3 µM in data set [1] (setting [19]) is -13.7%.

`CN(C)CC(=O)Nc1ccc2[nH]c(=O)c3ccccc3c2c1.Cl` [PJ-34, N-(6-oxo-5,6-dihydrophenanthridin-2-yl)-N, N-dimethylacetamide. HCl]: in data set [3], the “fold lower binding affinity than CVL218” value is reported as “about 22 fold” and the dissociation constant Kd is 68.1 µM.

For the molecule `CC(=O)N[C@H]1[C@H]([C@H](O)[C@H](O)CO)OC(C(=O)O)=C[C@@H]1N=C(N)N` [Zanamivir], the inhibition at 3 µM in data set [1] (setting [19]) was -10.4%.

On to `CCOC(=O)c1c(CSc2ccccc2)n(C)c2cc(Br)c(O)c(CN(C)C)c12` [arbidol], for which the inhibition at 30 µM in data set [1] (setting [19]) was 99%. Also, the inhibition at 3 µM in data set [1] (Severe acute respiratory syndrome coronavirus 2, Vero C1008, 3 μM, Vero E6, MOI 0.05, qRT-PCR, preliminary test, read-out: % Inhibition of SARS-CoV-2 replication) was 21.8%. Besides, the “tissue distribution post administration” value in data set [14] is “mostly distributed in stomach and plasma”.

As for `NC(=O)c1nc(F)c[nH]c1=O` [favipiravir, reference compound], the “inhibition rate against SARS-CoV-2 replication” value in [2] (favipiravir alone at 30 μM) was “no inhibitory activity”.

Consider `O=C(c1cc(Cc2n[nH]c(=O)c3ccccc23)ccc1F)N1CCN(C(=O)C2CC2)CC1` [olaparib, reference compound], for which the inhibition at 3.2 µM in data set [1] (Severe acute respiratory syndrome coronavirus 2, Vero C1008, 3.2 μM, Vero E6, MOI 0.05, qRT-PCR, preliminary test, read-out: % Inhibition of SARS-CoV-2 replication) was 15.3%. Also, the “dissociation constant (KD)” value in [3] (SPR, immobilized SARS-CoV-2-N) is “no binding signal”. In addition, the “LPS-induced stimulation of IL-6” value in [4] (both 3 μM and 1 μM) is recorded as “no significant inhibition”. Besides, the “LPS-induced stimulation of IL-10” value in data set [5] (both 3 μM and 1 μM) was “no significant inhibition”. The “LPS-induced concentration of IFN-γ” value in data set [6] was “no significant inhibition”. The “LPS-induced concentration of TNF-α” value in data set [7] is recorded as “no significant inhibition”.

For the molecule `CCC(CC)COC(=O)[C@H](C)N[P@](=O)(OC[C@H]1O[C@@](C#N)(c2ccc3c(N)ncnn23)[C@H](O)[C@@H]1O)Oc1ccccc1` [remdesivir], the inhibition at 10 µM came to 5.86% in data set [15] (read-out: % Inhibition, Entry); 92.9% in [15] (read-out: % Inhibition, Full-time); 91.9% in data set [15] (read-out: % Inhibition, Post-entry).

With `CNCc1ccc(-c2[nH]c3cc(F)cc4c3c2CCNC4=O)cc1` [rucaparib], the “accessibility in the lung tissue” value in data set [16] is reported as “poor accessibility”.

One may read the EC50 as the concentration that produces a half-maximal response. One may read the Kd as the free concentration of one partner at which half of the binding sites on the other are occupied at equilibrium, for simple one-to-one binding. As a reminder, the CC50 is the concentration giving 50% cytotoxicity. Usually inhibition stands for the change of the read-out against control, counted positive when it falls.
